Assay results as given in ChEMBL document CHEMBL1157539, “Thousands of chemical starting points for antimalarial lead identification” (Nature, 2010).

Tested on: Plasmodium falciparum
Assay: GSK_TCMDC: Inhibition of Plasmodium falciparum 3D7 in whole erythrocytes, using parasite LDH activity as an index of growth.
Type: functional, organism-based
Settings: Plasmodium falciparum, 3D7

Compound	XC50 [nM]
O=C(Cc1cccc2ccccc12)N1CCc2cc3nccc(N4CCN5CCC[C@H]5C4)c3cc21	777
CCCCCCN1CCCN(Cc2cccc(NC(=O)c3cc4ccccc4s3)c2)CC1	660
CC(=O)N(Cc1nc(-c2cc(C(F)(F)F)cc(C(F)(F)F)c2)cs1)c1c(C)cccc1C	107
CCOC(=O)c1cn(CC)c2cc(N3CCCCC3)c(F)cc2c1=O	125
COc1cc2nc(N(C)Cc3cc4c(Cl)cccc4s3)nc(N)c2cc1OC	953
O=C(c1cc(-c2ccccc2O)on1)N1CCN(C(c2ccccc2)c2ccccc2)CC1	335
CC(C)(C)c1cc(C(=O)N2CCN(c3ncnc4ccsc34)CC2)n(Cc2ccccc2)n1	907
COc1ccc2ncc(C#N)c(CCN3CCC(NCc4ccc5c(c4)NC(=O)CO5)CC3)c2c1	588
O=C(Nc1cccc(F)c1)N1CCC(NS(=O)(=O)c2ccc(Br)cc2)CC1	979
O=C(Nc1ccc(C(F)(F)F)cc1)c1cccc(S(=O)(=O)NCC2CCCN(CC3CCCCC3)C2)c1 (configuration not stated)	750
O=C(Nc1ccc(Cl)cc1)c1cc(Cl)cc2nc(C(F)(F)F)[nH]c12	131
COc1cc2ncnc(Nc3ccc4nc(Cc5ccccc5)[nH]c4c3)c2cc1OC	1480
N#Cc1ccc(-c2ccc(C(=O)NCCCCN3CCC(c4cc(Br)c5c(c4OCC(N)=O)CCCC5)CC3)cc2)cc1	797
CCCC(C)Nc1nc(C)cc(N[C@@H](CC(C)C)C(=O)NC2CCCC2)n1 (some centres not stated)	1080
Cc1cc(N[C@@H](CC(C)C)C(=O)NCc2cccc(F)c2)nc(Nc2ccccc2)n1	1090
O=C(c1cc(C(=O)Nc2ccc(F)cc2)c(=O)n(-c2ccc(F)cc2)c1)c1cc(Cl)ccc1O	219
CC(=O)Nc1ccc(CNC2Cc3ccc(-c4ccc(Cl)c(Cl)c4)cc3C2)cc1 (configuration not stated)	998
O=C(Nc1ccc2c(c1)CCC2)c1nc(N2CCN(c3ccncc3)CC2)ccc1Cl	1380
O=S(=O)(NCCN1CCCC1)c1ccc(-c2ccc(CNCc3ccccc3)cc2)cc1F	1290
O=C(C=Cc1ccc(Cl)c(Cl)c1)NCCCCCN1CCC(CCCNC(=O)/C=C/c2ccccc2)CC1	592
CC(=O)c1ccc(-n2ccnc2)cc1	852
O=C(N/C(=C/c1cccc([N+](=O)[O-])c1)c1nc2ccccc2[nH]1)c1cccc(Br)c1	616
COc1ccc(NC(=O)c2cccc(Br)c2)cc1N1CCN(CCCCCCCN2CCN(c3cc(NC(=O)c4cccc(Br)c4)ccc3OC)CC2)CC1	184
CCOC(=O)c1nc(-c2cccnc2)[nH]c1NC(=S)NCc1ccccc1	711
C=C(F)c1sc(CNCCCNc2nc3ccccc3[nH]2)c(C)c1Br	367

Compound	XC50 [nM]
CCOC(=O)c1ccc2[nH]c(-c3ccc(C(=O)NC4CCN(Cc5ccccc5)CC4)s3)nc2c1	745
CC(C)(C)CC(=O)Nc1ccc(Nc2cc(-c3ccncc3)cc3ncc(C(N)=O)cc23)cc1	700
CCN(CC)c1nc(-c2ccccc2)cc(-c2ccccc2)c1C#N	450
Cc1cc(N[C@@H](Cc2ccccc2)C(=O)NCCc2ccccc2)nc(NCCOc2ccccc2)n1	1000
O=C(Nc1cccc(CN2CCN(Cc3ccc(O)cc3)CC2)c1)c1cccc(C(F)(F)F)c1	1210
O=c1cc(NCCCNCc2[nH]c3cc(Cl)cc(Cl)c3c2Cn2cccn2)[nH]c2ccccc12	972
O=C(Nc1cccc(-c2cccc(-c3nc4cc(C(F)(F)F)ccc4[nH]3)c2)c1)c1ccoc1	277
O=C(/C=C/c1ccc(Br)cc1)NCCCCCN1CCC(c2c[nH]c3ccccc23)CC1	724
CCC1CN(CCCn2c3ccccc3c3ccccc32)C(CC)CN1 (configuration not stated)	1080
O=C(Nc1ccc(Cn2ncc(N3CCCNCC3)c(Cl)c2=O)cc1)Nc1cccc(C(F)(F)F)c1	640
c1ccc(-c2cc(NCCCCNc3cc(-c4ccccc4)nc4ccccc34)c3ccccc3n2)cc1	133
COc1cccc(-c2cc3nc4c(c(NCCCn5ccnc5)n3n2)CCCC4)c1	681
CC(NC(=O)c1ccc(O)c(-c2ccc(Cl)c(Cl)c2)c1)C(=O)NCCN1CCOCC1 (configuration not stated)	959
Cc1cccc2nc(-c3cccc(-c4cccc(NC(=O)Nc5ccccc5)c4)c3)[nH]c12	139
N#Cc1c(N2CCN(c3ccc(F)cc3)CC2)nc(N)c2c(N)nc3c(c12)CC(=O)N3C1CC1	837
Cc1cc(CN2CCC(N3CC(c4ccccc4)(c4ccccc4)OC3=O)C2)ccc1O (configuration not stated)	776
Fc1ccc(-c2csc3ncnc(Cl)c23)cc1	331
COc1ccc(Nc2nccc(NCCNC(=O)c3cc4ccccc4s3)n2)cc1	1020
CCCCC(O)c1cc(O)c2c(c1)OC(C)(C)CC2C1=CCN(Cc2ccc3ccccc3c2)CC1 (configuration not stated)	970
Cc1cc(N(C)C)nc(Nc2ccc(NC(=O)c3c(F)cccc3F)cc2)n1	1380
Clc1ncccc1-c1nc(NCCC(c2ccccc2)c2ccccc2)no1	1000
COc1ccc(COc2c(OC)cc(Cc3cnc(N)nc3N)cc2OC)cc1	912
NC1CCCN(Cc2cccc(-c3ccc(-c4nc5cc(C(F)(F)F)ccc5[nH]4)cc3)c2)C1 (configuration not stated)	518
CNCCCNCc1ccc(-c2ccc(F)c(Cl)c2)o1	752
Cc1cccc(C(=O)NC(NC(=S)Nc2cc(Cl)ccc2Cl)C(Cl)(Cl)Cl)c1 (configuration not stated)	1270

Compound	XC50 [nM]
O=C(c1cncc(-c2ccccc2)c1)N(Cc1cncn1Cc1ccccc1F)CC1CC1	804
Nc1ccc(-c2nc3cc(Cc4ccc5[nH]c(-c6ccc(N)cc6)nc5c4)ccc3[nH]2)cc1	512
CCC1CN2CCc3c([nH]c4ccccc34)C2CC1CC1NCCc2cc(OC)c(OC)cc21 (configuration not stated)	836
O=S(=O)(Nc1ccc(CCN2CCC(N3CCCCC3)CC2)cc1)c1ccccc1C(F)(F)F	1020
CCOC(=O)c1ccc(-c2cnc(N)c(-c3nc4cccc(C)c4[nH]3)c2)cc1	281
Fc1ccccc1C=NN=c1cc[nH]c2ccc(C(F)(F)F)cc12	871
NS(=O)(=O)c1ccc(CNc2ccc3ncc(-c4ccc(OC(F)(F)F)cc4)n3n2)cc1	578
O=S(=O)(NCCN1CCCC1)c1ccc(-c2ccc(CNCc3ccc(F)cc3)cc2)s1	838
COc1ccc(C2CC(c3ccccc3O)=NN2C(=O)c2ccco2)cc1OC (configuration not stated)	947
CCNc1cc(C)nc(Nc2ccc(NC(=O)c3cccs3)cc2)n1	1020
N#Cc1ccc(CN2CCC(Oc3ccc(NC(=O)c4cccs4)cc3Cl)CC2)cc1	577
CC(C)(C)c1cc2cc(Nc3ccnc4cc(-c5nccs5)ccc34)ccc2[nH]1	441
COC(=O)c1ccc(CCCNCC(O)c2cccc(C(F)(F)F)c2)cc1 (configuration not stated)	803
CC(CN(C)C)C(=O)Nc1ccc(-c2cccc(-c3nc4ccccc4[nH]3)c2)cc1 (configuration not stated)	722
CCc1c(CCNCCc2cccc(CCNCCc3ccc(OC)c(OC)c3CC)c2)ccc(OC)c1OC	361
COc1cc(OC)cc(-c2nn(-c3ccc([N+](=O)[O-])cc3C#N)c(=S)n2Cc2ccco2)c1	577
O=C(/C=C/c1ccc(Cl)c(Cl)c1)NCCCCCN1CCC(NC(=O)Nc2cccc(Cl)c2)CC1	754
OCCNc1nc(Nc2ccccc2)nc2ccccc12	128
NCc1ccc(CNCc2ccc(-c3ccc(-c4nc5cc(C(F)(F)F)ccc5[nH]4)s3)cc2)cc1	157
CCCC(C(CC1CCC(C)CC1)C(=O)NC(CCCNc1ncccn1)C(=O)Nc1nccs1)N(O)C=O (configuration not stated)	187
O=C(c1ccccc1)N1CCC(CN2CCOC(c3ccccc3)(c3ccccc3)C2)CC1	497
CN1CCCN(Cc2cccc(-c3ccc(CNC(=O)c4cccc(Cl)c4)c(F)c3)c2)CC1	190
CC(=O)Nc1cccc(C(=O)Nc2cccc(-c3ccc(-c4nc5cc(C(F)(F)F)ccc5[nH]4)s3)c2)c1	652
O=C(Nc1ccc(OC2CCN(Cc3ccc(F)cc3)C2)c(Cl)c1)c1ccc(F)cc1 (configuration not stated)	490
CN(C)CC1CCCN1Cc1ccccc1-c1cnn(C)c(=O)c1Oc1ccc(F)cc1 (configuration not stated)	1220

Compound	XC50 [nM]
CC(C)(C)c1ccc(C(=O)N2CCC3(CC2)C(=O)N(CC(=O)NCC2CCCO2)CN3c2ccccc2)cc1 (configuration not stated)	231
Nc1nccc2ccc(-c3ccc(NC(=O)Nc4cc(C(F)(F)F)ccc4F)cc3)cc12	86.3
CN1CCN(Cc2cc3cc(NC(=O)/C=C/c4cccc(Cl)c4)ccc3s2)CC1	273
Cc1cc(F)ccc1-c1nc(NCC(O)CNCCc2ccccc2)nc2c1ccc(=O)n2-c1c(F)cccc1F (configuration not stated)	539
Cc1ccc(NC(=O)NC2CCN(CCCCCNC(=O)/C=C/c3ccc(Cl)c(Cl)c3)CC2)cc1	694
CCOC(=O)c1ccc(NC(=O)Nc2cccc(-c3cccc(-c4nc5ccccc5[nH]4)c3)c2)cc1	68.7
Cc1ccc(/C=C/C(=O)NCCCCCN2CCCN(C(=O)Nc3ccc(Cl)c(Cl)c3)CC2)cc1	942
CC(=O)C1(c2ccccc2)CCN(CCC(NC(=O)c2cc(C(F)(F)F)cc(C(F)(F)F)c2)c2ccc(Cl)c(Cl)c2)CC1 (configuration not stated)	1190
COc1ccccc1CCNc1nc(C)cc(N[C@@H](CC(C)C)C(=O)Nc2ccccc2)n1	1280
Cc1nc2ccccc2c(=O)n1NCc1ccc(Cl)c(Cl)c1	146
CCCCN(CCCC)CCCN(CCCN(CCCC)CCCC)c1cc(C)nc(Nc2ccc(Cl)cc2)n1	370
CC(C)N1CCC(N(Cc2ccc(-c3ccc(C(F)(F)F)cc3)cc2)C(=O)Cn2c(SCc3cccc(F)c3F)cc(=O)c3ccccc32)CC1	817
Brc1ccc(Nc2nc(NCc3ccccc3)c3ccccc3n2)cc1	337
Oc1ccc2[nH]cc(C3CCN(CCCCCCCCCN4CCC(c5c[nH]c6ccc(O)cc56)CC4)CC3)c2c1	314
CCCC1N=C(N)N=C(N)N1c1ccc(CC)cc1 (configuration not stated)	66.9
CN(C)CCn1c(=N)n(CC(O)c2ccc(Cl)c(Cl)c2)c2ccccc21 (configuration not stated)	798
Cc1cccc2nc(-c3cccc(-c4cccc(NC(=O)CNc5ccc(C(N)=O)cc5)c4)c3)[nH]c12	282
Oc1cc(-c2nc(C3(CNCc4ccc(Cl)cc4)CCCCC3)[nH]c2-c2ccncc2)ccc1Cl	125
O=C(Nc1cccc(-c2ccc(CN3CCCC3)cc2)c1)c1cccc(F)c1	783
CC(C)(C)c1cc(C(=O)N2CCC(c3ccccn3)CC2)n(Cc2ccccc2)n1	955
Cc1cccc2nc(-c3cccc(-c4cccc(NC(=O)CCc5c[nH]cn5)c4)c3)[nH]c12	553
CCCNCc1ccc(-c2ccc(CN(CCOC)C(=O)c3cccc(C#N)c3)cc2)nc1	1230
